Read-outs that look alike come from different tables or passages of the source.
Legend:
Bmx(h) = target: T1, Bmx(h) (Homo sapiens, UniProt P51813); assay: Kinase panel; type: biochemical
T1 construct: purchased Millipore KinaseProfiler
T1 sequence (P51813 1-675): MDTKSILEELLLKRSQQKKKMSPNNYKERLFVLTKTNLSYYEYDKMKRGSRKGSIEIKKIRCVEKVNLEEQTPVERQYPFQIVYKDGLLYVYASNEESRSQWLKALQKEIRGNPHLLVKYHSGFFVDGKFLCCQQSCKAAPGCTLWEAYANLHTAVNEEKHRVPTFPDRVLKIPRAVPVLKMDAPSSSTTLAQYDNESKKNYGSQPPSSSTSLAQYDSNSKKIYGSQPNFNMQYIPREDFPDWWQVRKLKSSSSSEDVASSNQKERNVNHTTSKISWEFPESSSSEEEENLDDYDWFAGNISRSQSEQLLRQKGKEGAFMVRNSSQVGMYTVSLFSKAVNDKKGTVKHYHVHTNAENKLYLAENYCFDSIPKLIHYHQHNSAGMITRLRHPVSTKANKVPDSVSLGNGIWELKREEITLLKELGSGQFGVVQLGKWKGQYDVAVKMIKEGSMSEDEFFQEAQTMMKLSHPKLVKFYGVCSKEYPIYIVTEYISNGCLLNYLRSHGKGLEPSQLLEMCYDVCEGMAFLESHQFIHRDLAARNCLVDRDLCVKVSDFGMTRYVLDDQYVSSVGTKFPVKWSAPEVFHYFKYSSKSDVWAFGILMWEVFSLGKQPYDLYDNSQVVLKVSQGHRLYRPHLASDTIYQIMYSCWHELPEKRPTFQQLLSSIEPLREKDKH

[1] = Plasma insulin after single oral dose; type: in vivo, mouse
Method: Blood glucose levels were determined from tail vein puncture in mice using a handheld glucometer. Plasma Insulin levels were using the Rat Ultrasensitive Insulin ELISA kit (Crystal Chem Inc).

EphB2(h) = target: T2, EphB2(h) (Homo sapiens, UniProt P29323); assay: Kinase panel; type: biochemical
T2 construct: purchased Millipore KinaseProfiler
T2 sequence (P29323 19-1055): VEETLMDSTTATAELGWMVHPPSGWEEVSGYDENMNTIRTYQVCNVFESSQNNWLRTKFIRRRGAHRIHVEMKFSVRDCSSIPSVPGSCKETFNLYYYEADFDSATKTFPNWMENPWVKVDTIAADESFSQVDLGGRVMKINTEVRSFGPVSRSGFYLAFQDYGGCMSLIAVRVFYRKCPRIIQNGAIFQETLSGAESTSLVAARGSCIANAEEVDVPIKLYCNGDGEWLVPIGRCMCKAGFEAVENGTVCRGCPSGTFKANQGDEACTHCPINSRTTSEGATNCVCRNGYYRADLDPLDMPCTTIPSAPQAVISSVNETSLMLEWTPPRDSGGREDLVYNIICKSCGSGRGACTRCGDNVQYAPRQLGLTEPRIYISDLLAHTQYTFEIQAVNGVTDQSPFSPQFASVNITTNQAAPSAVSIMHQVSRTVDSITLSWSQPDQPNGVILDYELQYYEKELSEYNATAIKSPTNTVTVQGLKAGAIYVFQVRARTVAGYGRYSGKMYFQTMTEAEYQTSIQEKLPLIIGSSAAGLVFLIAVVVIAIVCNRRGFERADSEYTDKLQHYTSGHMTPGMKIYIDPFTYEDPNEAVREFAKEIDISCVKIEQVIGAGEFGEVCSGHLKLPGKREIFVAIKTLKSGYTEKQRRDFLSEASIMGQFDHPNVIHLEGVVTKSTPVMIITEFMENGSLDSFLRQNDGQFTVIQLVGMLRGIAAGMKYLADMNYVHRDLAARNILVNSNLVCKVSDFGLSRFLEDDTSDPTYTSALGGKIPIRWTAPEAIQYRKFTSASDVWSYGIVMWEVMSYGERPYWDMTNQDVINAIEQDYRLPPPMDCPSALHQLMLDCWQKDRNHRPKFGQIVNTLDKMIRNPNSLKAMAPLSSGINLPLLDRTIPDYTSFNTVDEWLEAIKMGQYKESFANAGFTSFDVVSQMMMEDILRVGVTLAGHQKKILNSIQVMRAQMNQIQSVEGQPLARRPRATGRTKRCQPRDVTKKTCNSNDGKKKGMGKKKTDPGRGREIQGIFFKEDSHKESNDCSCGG

Aurora-A(h) = target: T3, Aurora-A(h) (Homo sapiens, UniProt O14965); assay: Kinase panel; type: biochemical
T3 construct: purchased Millipore KinaseProfiler
T3 sequence (O14965 1-403): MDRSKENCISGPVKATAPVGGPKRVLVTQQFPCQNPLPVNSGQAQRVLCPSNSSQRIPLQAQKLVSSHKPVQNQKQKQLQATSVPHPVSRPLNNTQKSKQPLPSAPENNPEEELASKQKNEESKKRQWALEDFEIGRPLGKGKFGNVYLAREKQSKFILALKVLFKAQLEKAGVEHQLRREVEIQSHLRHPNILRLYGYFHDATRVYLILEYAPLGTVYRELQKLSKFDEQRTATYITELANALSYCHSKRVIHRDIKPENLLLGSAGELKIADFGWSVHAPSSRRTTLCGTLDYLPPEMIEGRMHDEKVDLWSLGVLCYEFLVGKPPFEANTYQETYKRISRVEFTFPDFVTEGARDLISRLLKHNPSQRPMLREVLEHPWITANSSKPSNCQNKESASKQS

Abl (M351T)(h) = target: T4, Abl (M351T)(h) (Homo sapiens, UniProt P00519, M351T); assay: Kinase panel; type: biochemical
T4 construct: purchased Millipore KinaseProfiler

MRCKα(h) = target: T5, MRCKα(h) (Homo sapiens, UniProt Q5VT25); assay: Kinase panel; type: biochemical
T5 construct: purchased Millipore KinaseProfiler
T5 sequence (Q5VT25 whole entry): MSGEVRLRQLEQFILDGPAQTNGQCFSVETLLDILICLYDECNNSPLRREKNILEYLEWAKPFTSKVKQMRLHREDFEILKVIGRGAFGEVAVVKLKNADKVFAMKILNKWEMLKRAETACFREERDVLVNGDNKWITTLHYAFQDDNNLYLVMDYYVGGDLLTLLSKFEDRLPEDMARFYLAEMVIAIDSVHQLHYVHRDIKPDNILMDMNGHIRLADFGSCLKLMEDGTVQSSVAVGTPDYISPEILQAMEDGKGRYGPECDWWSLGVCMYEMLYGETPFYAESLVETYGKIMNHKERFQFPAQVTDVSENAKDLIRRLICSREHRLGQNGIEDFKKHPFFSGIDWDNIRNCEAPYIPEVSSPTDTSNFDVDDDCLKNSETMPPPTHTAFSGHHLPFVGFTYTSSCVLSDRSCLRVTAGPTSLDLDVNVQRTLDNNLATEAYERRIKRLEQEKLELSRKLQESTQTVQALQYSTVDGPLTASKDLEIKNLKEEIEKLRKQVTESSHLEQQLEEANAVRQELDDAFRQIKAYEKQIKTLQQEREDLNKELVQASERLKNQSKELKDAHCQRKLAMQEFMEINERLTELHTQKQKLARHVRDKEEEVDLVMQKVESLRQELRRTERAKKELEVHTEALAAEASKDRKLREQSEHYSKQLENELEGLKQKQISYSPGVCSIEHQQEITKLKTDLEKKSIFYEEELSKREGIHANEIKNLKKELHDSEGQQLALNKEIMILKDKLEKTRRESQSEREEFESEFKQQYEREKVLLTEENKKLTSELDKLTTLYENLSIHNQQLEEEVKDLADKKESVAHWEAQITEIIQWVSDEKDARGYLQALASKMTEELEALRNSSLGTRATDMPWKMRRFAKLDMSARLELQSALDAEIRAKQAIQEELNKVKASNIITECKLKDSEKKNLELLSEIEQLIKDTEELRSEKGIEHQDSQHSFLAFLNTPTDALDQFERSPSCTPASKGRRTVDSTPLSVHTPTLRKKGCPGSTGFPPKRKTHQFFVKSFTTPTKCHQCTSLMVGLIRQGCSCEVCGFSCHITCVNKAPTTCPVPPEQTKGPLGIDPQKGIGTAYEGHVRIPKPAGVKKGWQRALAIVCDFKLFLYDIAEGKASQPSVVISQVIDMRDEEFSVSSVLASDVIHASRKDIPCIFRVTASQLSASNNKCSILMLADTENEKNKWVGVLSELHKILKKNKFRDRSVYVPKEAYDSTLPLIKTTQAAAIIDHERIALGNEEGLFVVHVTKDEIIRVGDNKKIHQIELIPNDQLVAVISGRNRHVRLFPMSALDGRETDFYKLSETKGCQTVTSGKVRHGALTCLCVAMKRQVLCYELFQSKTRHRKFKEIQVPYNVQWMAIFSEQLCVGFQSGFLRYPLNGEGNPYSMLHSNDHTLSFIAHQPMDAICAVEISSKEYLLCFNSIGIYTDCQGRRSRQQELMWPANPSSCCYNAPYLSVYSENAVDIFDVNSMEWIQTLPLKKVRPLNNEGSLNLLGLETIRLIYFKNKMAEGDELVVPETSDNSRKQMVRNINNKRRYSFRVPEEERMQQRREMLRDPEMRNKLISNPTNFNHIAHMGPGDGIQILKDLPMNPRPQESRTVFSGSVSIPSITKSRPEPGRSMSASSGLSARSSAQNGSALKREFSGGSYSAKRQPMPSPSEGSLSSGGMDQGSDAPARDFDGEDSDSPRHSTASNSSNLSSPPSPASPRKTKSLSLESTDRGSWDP

CHK2(I157T)(h) = target: T6, CHK2(I157T)(h) (Homo sapiens, UniProt O96017, I157T); assay: Kinase panel; type: biochemical
T6 construct: purchased Millipore KinaseProfiler
T6 sequence (O96017 whole entry I157T): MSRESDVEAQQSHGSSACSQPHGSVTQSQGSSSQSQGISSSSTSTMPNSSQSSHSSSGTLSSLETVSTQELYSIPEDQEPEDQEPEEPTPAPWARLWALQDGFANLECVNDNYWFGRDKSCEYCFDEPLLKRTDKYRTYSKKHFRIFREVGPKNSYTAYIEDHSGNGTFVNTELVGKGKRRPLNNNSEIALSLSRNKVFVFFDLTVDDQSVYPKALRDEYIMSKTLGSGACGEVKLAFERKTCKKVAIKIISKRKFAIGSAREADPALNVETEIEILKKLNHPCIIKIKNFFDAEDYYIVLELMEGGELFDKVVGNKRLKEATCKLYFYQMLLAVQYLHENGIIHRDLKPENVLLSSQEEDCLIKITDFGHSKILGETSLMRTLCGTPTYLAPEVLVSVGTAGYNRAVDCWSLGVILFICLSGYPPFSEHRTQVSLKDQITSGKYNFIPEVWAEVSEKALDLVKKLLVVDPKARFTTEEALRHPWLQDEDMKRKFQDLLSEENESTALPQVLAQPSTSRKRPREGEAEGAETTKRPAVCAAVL

RSK1 = RSK1 (Homo sapiens, UniProt Q15418); assay: Kinase IC50 assay; type: biochemical
Sequence of RSK1 (Q15418 whole entry): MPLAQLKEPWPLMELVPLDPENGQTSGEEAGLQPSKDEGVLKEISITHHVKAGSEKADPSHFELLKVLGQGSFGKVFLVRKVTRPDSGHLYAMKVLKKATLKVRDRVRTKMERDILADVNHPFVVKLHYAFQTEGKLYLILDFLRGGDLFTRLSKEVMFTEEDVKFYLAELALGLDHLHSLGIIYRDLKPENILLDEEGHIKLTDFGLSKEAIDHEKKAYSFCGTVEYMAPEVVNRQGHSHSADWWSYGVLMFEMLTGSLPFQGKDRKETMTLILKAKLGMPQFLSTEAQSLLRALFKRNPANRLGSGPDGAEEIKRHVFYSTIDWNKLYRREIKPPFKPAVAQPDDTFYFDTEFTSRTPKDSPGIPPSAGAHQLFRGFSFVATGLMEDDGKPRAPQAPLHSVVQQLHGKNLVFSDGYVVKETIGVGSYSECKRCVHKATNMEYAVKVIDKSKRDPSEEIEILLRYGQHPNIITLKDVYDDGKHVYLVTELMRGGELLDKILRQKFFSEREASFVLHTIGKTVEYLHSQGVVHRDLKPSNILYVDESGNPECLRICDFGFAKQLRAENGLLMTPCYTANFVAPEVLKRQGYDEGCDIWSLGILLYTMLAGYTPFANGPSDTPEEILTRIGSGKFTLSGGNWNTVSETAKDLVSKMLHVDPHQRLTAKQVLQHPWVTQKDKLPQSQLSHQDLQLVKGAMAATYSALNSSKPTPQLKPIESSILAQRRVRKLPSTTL

Fgr(h) = target: T7, Fgr(h) (Homo sapiens, UniProt P09769); assay: Kinase panel; type: biochemical
T7 construct: purchased Millipore KinaseProfiler
T7 sequence (P09769 whole entry): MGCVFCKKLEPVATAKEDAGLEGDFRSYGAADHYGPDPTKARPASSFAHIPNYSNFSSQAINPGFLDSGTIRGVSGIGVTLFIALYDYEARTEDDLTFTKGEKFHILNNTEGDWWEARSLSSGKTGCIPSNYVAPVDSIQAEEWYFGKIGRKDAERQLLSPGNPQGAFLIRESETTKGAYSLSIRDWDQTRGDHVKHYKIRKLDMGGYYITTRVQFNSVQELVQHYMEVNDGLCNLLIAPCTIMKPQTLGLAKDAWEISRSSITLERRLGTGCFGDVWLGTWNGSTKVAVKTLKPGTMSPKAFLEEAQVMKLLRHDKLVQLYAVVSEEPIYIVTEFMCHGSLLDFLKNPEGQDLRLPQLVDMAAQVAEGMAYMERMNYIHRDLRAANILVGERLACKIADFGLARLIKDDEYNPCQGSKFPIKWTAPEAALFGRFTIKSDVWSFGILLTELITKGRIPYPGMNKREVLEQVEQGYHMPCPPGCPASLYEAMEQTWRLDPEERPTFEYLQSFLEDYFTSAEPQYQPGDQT

Plk1(h) = target: T8, Plk1(h) (Homo sapiens, UniProt P53350); assay: Kinase panel; type: biochemical
T8 construct: purchased Millipore KinaseProfiler
T8 sequence (P53350 whole entry): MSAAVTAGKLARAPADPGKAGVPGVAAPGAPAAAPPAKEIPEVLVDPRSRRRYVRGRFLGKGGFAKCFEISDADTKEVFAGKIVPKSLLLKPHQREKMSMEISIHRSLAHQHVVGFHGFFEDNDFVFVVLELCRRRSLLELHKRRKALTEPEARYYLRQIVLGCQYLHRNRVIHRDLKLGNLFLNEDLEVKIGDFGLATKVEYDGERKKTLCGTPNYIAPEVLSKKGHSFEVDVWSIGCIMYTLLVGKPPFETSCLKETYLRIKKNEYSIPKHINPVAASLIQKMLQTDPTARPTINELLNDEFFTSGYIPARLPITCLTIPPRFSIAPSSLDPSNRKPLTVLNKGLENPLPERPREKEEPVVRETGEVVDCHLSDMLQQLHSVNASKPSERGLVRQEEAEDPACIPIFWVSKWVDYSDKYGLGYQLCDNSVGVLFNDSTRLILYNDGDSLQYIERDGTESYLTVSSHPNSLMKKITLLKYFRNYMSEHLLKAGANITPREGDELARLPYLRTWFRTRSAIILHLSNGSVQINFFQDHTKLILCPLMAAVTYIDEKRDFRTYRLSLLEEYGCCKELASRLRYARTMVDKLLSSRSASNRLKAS

MARK1(h) = target: T9, MARK1(h) (Homo sapiens, UniProt Q9P0L2); assay: Kinase panel; type: biochemical
T9 construct: purchased Millipore KinaseProfiler
T9 sequence (Q9P0L2 whole entry): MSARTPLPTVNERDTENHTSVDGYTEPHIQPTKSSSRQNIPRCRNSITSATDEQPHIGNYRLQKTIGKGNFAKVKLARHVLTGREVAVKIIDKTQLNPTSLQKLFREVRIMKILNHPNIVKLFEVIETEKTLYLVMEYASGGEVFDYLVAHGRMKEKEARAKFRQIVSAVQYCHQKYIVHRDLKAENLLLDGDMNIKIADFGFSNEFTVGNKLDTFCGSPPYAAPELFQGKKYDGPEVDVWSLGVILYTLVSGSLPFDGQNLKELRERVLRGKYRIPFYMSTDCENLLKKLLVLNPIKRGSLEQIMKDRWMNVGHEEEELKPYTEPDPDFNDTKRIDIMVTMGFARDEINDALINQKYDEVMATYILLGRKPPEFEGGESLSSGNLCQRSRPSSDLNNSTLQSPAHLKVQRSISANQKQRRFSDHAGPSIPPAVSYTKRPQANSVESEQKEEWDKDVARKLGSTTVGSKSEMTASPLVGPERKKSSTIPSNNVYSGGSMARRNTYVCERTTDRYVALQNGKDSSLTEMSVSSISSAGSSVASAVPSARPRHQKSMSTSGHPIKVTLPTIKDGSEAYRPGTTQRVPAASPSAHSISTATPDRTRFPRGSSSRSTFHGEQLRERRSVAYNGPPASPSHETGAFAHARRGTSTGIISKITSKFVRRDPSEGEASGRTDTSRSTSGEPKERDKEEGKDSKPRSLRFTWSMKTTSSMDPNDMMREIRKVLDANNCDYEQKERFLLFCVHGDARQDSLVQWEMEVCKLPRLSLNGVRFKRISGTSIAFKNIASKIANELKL

For `Cn1ncc(Cl)c1-c1cc(C(=O)N[C@H](CN)Cc2cccc(F)c2)sc1Cl` [GSK2110183], the inhibition at 0.5 µM (Bmx(h)) was -2%, the inhibition at 10 µM (Bmx(h)) was 18% and the “time for insulin to return to baseline” value ([1]; 100 mg/kg single oral dose) was at most 8 h. It also gave an insulin level ([1]; 100 mg/kg single oral dose, 4 h post dosing) of 105.6 ng/mL, an inhibition at 0.5 µM (EphB2(h)) of -8% and an inhibition at 10 µM (EphB2(h)) of 4%. For the same compound, the inhibition at 0.5 µM (Aurora-A(h)) was 0%, the inhibition at 10 µM (Aurora-A(h)) was 23% and the inhibition at 0.5 µM (Abl (M351T)(h)) was 0%. For the same compound, the inhibition at 10 µM (Abl (M351T)(h)) was 24%, the inhibition at 0.5 µM (MRCKα(h)) was -9% and the inhibition at 10 µM (MRCKα(h)) was -5%. It also gave an inhibition at 0.5 µM (CHK2(I157T)(h)) of -4%, an inhibition at 10 µM (CHK2(I157T)(h)) of 0% and an IC50 (RSK1) of 316 nM. The inhibition at 0.5 µM (Fgr(h)) was 3%, the inhibition at 10 µM (Fgr(h)) was 45% and the inhibition at 0.5 µM (Plk1(h)) was -21%. The inhibition at 10 µM (Plk1(h)) was -6%, the inhibition at 0.5 µM (MARK1(h)) was 26% and the inhibition at 10 µM (MARK1(h)) was 88%.

With `Cn1ncc(Cl)c1-c1cc(C(=O)N[C@H](CN)Cc2ccc(F)c(F)c2)oc1Cl` [GSK2141795] the inhibition at 0.5 µM (Bmx(h); 0.5 µM, read-out: % Inhibition) was -6%, the inhibition at 10 µM (Bmx(h); 10 µM, read-out: % Inhibition) was 21% and the “time for insulin to return to normal” value ([1]; single 30 mg/kg dose) was at most 8 h. The plasma insulin ([1]; single 30 mg/kg dose, concomitant with glucose at 2 h) was 188 ng/mL, the inhibition at 0.5 µM (EphB2(h); 0.5 µM, read-out: % Inhibition) was -8% and the inhibition at 10 µM (EphB2(h); 10 µM, read-out: % Inhibition) was 0%. For the same compound, the inhibition at 0.5 µM (Aurora-A(h); 0.5 µM, read-out: % Inhibition) was -10%, the inhibition at 10 µM (Aurora-A(h); 10 µM, read-out: % Inhibition) was 31% and the inhibition at 0.5 µM (Abl (M351T)(h); 0.5 µM, read-out: % Inhibition) was -7%. For the same compound, the inhibition at 10 µM (Abl (M351T)(h); 10 µM, read-out: % Inhibition) was -3%, the inhibition at 0.5 µM (MRCKα(h); 0.5 µM, read-out: % Inhibition) was -6% and the inhibition at 10 µM (MRCKα(h); 10 µM, read-out: % Inhibition) was -2%. It also gave an inhibition at 0.5 µM (CHK2(I157T)(h); 0.5 µM, read-out: % Inhibition) of 55%, an inhibition at 10 µM (CHK2(I157T)(h); 10 µM, read-out: % Inhibition) of 88% and an IC50 (RSK1) of 200 nM. For the same compound, the inhibition at 0.5 µM (Fgr(h); 0.5 µM, read-out: % Inhibition) was 2%, the inhibition at 10 µM (Fgr(h); 10 µM, read-out: % Inhibition) was 68% and the inhibition at 0.5 µM (Plk1(h); 0.5 µM, read-out: % Inhibition) was -34%. The inhibition at 10 µM (Plk1(h); 10 µM, read-out: % Inhibition) was 8%, the inhibition at 0.5 µM (MARK1(h); 0.5 µM, read-out: % Inhibition) was -11% and the inhibition at 10 µM (MARK1(h); 10 µM, read-out: % Inhibition) was 53%.
